The values below come from patent publication US9765068B2, “PRMT5 inhibitors and uses thereof” (Epizyme, Inc., priority 2012, dated 2017).

SMILES strings stand for the structures.

For the assay, the target named is PRMT5/MEP50 (Homo sapiens (Human), UniProt O14744). The experiment in a line: PRMT5 Biochemical Assay (PRMT5/MEP50 enzyme assay on peptide substrate, 3H-SAM Flashplate). Particulars: PRMT5/MEP50 4 nM, 3H-SAM 75 nM, peptide 40 nM. The text has this: General Materials. S-adenosylmethionine (SAM), S-adenosylhomocysteine (SAH), bicine, KCl, Tween20, dimethylsulfoxide (DMSO), bovine skin gelatin (BSG), and Tris(2-carboxyethyl)phosphine hydrochloride solution (TCEP) were purchased from Sigma-Aldrich at the highest level of purity possible. ^3H-SAM was purchase from American Radiolabeled Chemicals with a specific activity of 80 Ci/mmol. 384-well streptavidin Flashplates were purchased from PerkinElmer.
Sequence of PRMT5/MEP50 (O14744 other isoform, or with tags, fused parts or gaps): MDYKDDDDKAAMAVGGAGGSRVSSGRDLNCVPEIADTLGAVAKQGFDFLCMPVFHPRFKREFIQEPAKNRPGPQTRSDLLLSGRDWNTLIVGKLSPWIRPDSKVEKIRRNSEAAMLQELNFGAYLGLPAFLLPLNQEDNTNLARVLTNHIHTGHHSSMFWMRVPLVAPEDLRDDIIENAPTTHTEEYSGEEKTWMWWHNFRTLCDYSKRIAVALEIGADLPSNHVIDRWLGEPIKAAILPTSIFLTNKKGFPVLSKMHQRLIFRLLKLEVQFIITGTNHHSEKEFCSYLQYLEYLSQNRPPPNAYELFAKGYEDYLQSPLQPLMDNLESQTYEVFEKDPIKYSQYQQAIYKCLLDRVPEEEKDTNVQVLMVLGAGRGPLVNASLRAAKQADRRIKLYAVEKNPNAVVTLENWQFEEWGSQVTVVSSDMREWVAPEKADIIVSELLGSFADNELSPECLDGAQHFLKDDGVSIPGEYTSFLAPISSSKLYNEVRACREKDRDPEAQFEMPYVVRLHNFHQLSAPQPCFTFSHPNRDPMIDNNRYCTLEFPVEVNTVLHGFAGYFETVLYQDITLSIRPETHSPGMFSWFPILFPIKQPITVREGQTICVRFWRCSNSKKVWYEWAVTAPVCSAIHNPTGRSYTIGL
Sequence of PRMT5/MEP50 (Q9BQA1 other isoform, or with tags, fused parts or gaps partner): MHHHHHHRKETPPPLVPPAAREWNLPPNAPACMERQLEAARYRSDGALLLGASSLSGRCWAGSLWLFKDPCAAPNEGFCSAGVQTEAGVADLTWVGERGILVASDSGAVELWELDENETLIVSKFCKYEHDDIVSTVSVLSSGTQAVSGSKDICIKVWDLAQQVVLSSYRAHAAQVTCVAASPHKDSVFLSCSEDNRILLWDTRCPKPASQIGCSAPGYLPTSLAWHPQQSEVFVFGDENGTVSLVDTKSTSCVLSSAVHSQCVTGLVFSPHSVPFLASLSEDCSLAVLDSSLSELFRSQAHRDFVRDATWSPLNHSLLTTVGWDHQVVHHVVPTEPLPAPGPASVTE
Substrates. Peptide representative of human histone H4 residues 1-15 was synthesized with a C-terminal linker-affinity tag motif and a C-terminal amide cap by 21st Century Biochemicals. […] The sequence was Ac-[…][K-Biot]-amide (SEQ ID NO.:3).
Full-length human MEP50 (NM_024102) clone was amplified from a human testis cDNA library incorporating a 5′ sequence encoding a 6-histidine tag (MHHHHHH) (SEQ ID NO.:5) fused directly to Arg 2 of MEP50. The amplified genes were sublconed into pENTR/D/TEV (Life Technologies) and subsequently transferred by Gateway™ attL×attR recombination to pDEST8 baculvirus expression vector (Life Technologies).
Protein Expression. Recombinant baculovirus and Baculovirus-Infected Insect Cells (BIIC) were generated according to Bac-to-Bac kit instructions (Life Technologies) and Wasilko, 2006, respectively. Protein over-expression was accomplished by infecting exponentially growing Spodoptera frugiperda (SF9) cell culture at 1.2×10^6 cell/ml with a 5000 fold dilution of BIIC stock. Infections were carried out at 27° C. for 72 hours, harvested by centrifugation, and stored at −80° C. for purification.
Protein Purification. […] Flag-PRMT5/6His-MeP50 was eluted with 300 mM Imidazole in the same buffer. […] Reference: Wasilko, D. J. and S. E. Lee: “TIPS: titerless infected-cells preservation and scale-up” Bioprocess J., 5 (2006), pp. 29-32.
General Procedure for PRMT5/MEP50 Enzyme Assays on Peptide Substrates.
The assays were all performed in a buffer consisting of 20 mM Bicine (pH=7.6), 1 mM TCEP, 0.005% BSG, and 0.002% Tween20, prepared on the day of use. Compounds in 100% DMSO (1 ul) were spotted into a polypropylene 384-well V-bottom plates (Greiner) using a Platemate Plus outfitted with a 384-channel head (Thermo Scientific). DMSO (1 ul) was added to Columns 11, 12, 23, 24, rows A-H for the maximum signal control and 1 ul of SAH, a known product and inhibitor of PRMT5/MEP50, was added to columns 11, 12, 23, 24, rows I-P for the minimum signal control. A cocktail (40 ul) containing the PRMT5/MEP50 enzyme and the peptide was added by Multidrop Combi (Thermo-Fisher). The compounds were allowed to incubate with PRMT5/MEP50 for 30 min at 25 degrees Celsius, then a cocktail (10 ul) containing ^3H-SAM was added to initiate the reaction (final volume=51 ul). The final concentrations of the components were as follows: PRMT5/MEP50 was 4 nM, ^3H-SAM was 75 nM, peptide was 40 nM, SAH in the minimum signal control wells was 100 uM, and the DMSO concentration was 1%. The assays were stopped by the addition of non-radioactive SAM (10 ul) to a final concentration of 600 uM, which dilutes the ^3H-SAM to a level where its incorporation into the peptide substrate is no longer detectable. 50 ul of the reaction in the 384-well polypropylene plate was then transferred to a 384-well Flashplate and the biotinylated peptides were allowed to bind to the streptavidin surface for at least 1 hour before being washed three times with 0.1% Tween20 in a Biotek ELx405 plate washer. The plates were then read in a PerkinElmer TopCount plate reader to measure the quantity of ^3H-labeled peptide bound to the Flashplate surface, measured as disintegrations per minute (dpm) or alternatively, referred to as counts per minute (cpm).
[formula] Where dpm=disintegrations per minute, cmpd=signal in assay well, and min and max are the respective minimum and maximum signal controls.
In the case of `CN(C)c1cncc(OCC(=O)NCC(O)CN2CCc3ccccc3C2)c1` (stereo not shown) [Compound 143], the IC50 lay in the range of 1000 to 10000 nM.
Turning to `O=C(COC1CCCCC1)NCC(O)CN1CCc2ccccc2C1` (stereo not shown) [Compound 24, 2-(cyclohexyloxy)-N-(3-(3,4-dihydroisoquinolin-2(1H)-yl)-2-hydroxypropyl)acetamide], the IC50 lay within 101 to 1000 nM.
`CC(=O)Nc1ccc(OCC(=O)NCC(O)CN2CCc3ccccc3C2)cc1` (stereo not shown) [Compound 21, 2-(4-acetamidophenoxy)-N-(3-(3,4-dihydroisoquinolin-2(1H)-yl)-2-hydroxypropyl)acetamide]: the IC50 is 101 to 1000 nM.
With `O=C(COc1ccccc1C1CNC1)NCC(O)CN1CCc2ccccc2C1` (stereo not shown) [Compound 132], the IC50 is 1000 to 10000 nM.
With `N#Cc1ccccc1OCC(=O)NCC(O)CN1CCc2ccccc2C1` (stereo not shown) [Compound 17], the IC50 lay within 101 to 1000 nM.
Turning to `O=C(COc1ccccc1-c1c[nH]cn1)NCC(O)CN1CCc2ccccc2C1` (stereo not shown) [Compound 115], the IC50 was in the range of 10000 to 50000 nM.
For the compound `CC(=O)Nc1ccccc1OCC(=O)NCC(O)CN1CCc2ccccc2C1` (stereo not shown) [Compound 36], the IC50 is 101 to 1000 nM.
In the case of `O=C(Cc1ccncc1)NCC(O)CN1CCc2ccccc2C1` (stereo not shown) [Compound 51], the IC50 lay in the range of 10000 to 50000 nM.
Turning to `NC(=O)c1ccc(OCC(=O)NCC(O)CN2CCc3ccccc3C2)cc1` (stereo not shown) [Compound 13], the IC50 was in the range of 1000 to 10000 nM.
Turning to `NC(=O)c1cccc(OCC(=O)NCC(O)CN2CCc3ccccc3C2)c1` (stereo not shown) [Compound 34, 3-(2-((3-(3,4-dihydroisoquinolin-2(1H)-yl)-2-hydroxypropyl)amino)-2-oxoethoxy)benzamide], the IC50 is 101 to 1000 nM.
`CN1CCc2cccc(OCC(=O)NCC(O)CN3CCc4ccccc4C3)c2C1` (stereo not shown) [Compound 120]: the IC50 fell in the range of 101 to 1000 nM.
Take `N#Cc1ccc(OCC(=O)NCC(O)CN2CCc3ccccc3C2)cc1` (stereo not shown) [Compound 11]: the IC50 fell in the range of 101 to 1000 nM.
The same measure for `O=C(COc1ccccc1-c1ncc[nH]1)NCC(O)CN1CCc2ccccc2C1` (stereo not shown) [Compound 137]: 101 to 1000 nM; for `O=C(COc1cccc2ncc(=O)[nH]c12)NCC(O)CN1CCc2ccccc2C1` (stereo not shown) [Compound 129]: 101 to 1000 nM; for `CN1CCC(c2ccccc2OCC(=O)NCC(O)CN2CCc3ccccc3C2)C1` (stereo not shown) [Compound 136]: 1000 to 10000 nM.
The same measure for `O=C(COc1cccc2[nH]c(=O)cnc12)NCC(O)CN1CCc2ccccc2C1` (stereo not shown) [Compound 125]: 1000 to 10000 nM.
`CC(Oc1ccccc1S(C)(=O)=O)C(=O)NCC(O)CN1CCc2ccccc2C1` (stereo not shown) [Compound 114]: the IC50 was in the range of 101 to 1000 nM.
As to `NS(=O)(=O)c1ccc(OCC(=O)NCC(O)CN2CCc3ccccc3C2)cc1` (stereo not shown) [Compound 52], the IC50 is 1000 to 10000 nM.
`O=C(COc1cccc2c1CCCN2)NCC(O)CN1CCc2ccccc2C1` (stereo not shown) [Compound 150]: the IC50 lay within 101 to 1000 nM.
With `CS(=O)(=O)Nc1ccc(OCC(=O)NCC(O)CN2CCc3ccccc3C2)cc1` (stereo not shown) [Compound 42], the IC50 lay in the range of 101 to 1000 nM.
In the case of `CS(=O)(=O)N1CCN(c2ccccc2OCC(=O)NCC(O)CN2CCc3ccccc3C2)CC1` (stereo not shown) [Compound 106], the IC50 was in the range of 101 to 1000 nM.
Turning to `Cc1ccccc1OCC(=O)NCC(O)CN1CCc2ccccc2C1` (stereo not shown) [Compound 15, N-(3-(3,4-dihydroisoquinolin-2(1H)-yl)-2-hydroxypropyl)-2-(o-tolyloxy)acetamide], the IC50 was 101 to 1000 nM.
On to `N#Cc1cccc(OCC(=O)NCC(O)CN2CCc3ccccc3C2)c1` (stereo not shown) [Compound 8, 2-(3-cyanophenoxy)-N-(3-(3,4-dihydroisoquinolin-2(1H)-yl)-2-hydroxypropyl)acetamide], for which the IC50 lay within 101 to 1000 nM.
The same measure for `CC(=O)Nc1cccc(OCC(=O)NCC(O)CN2CCc3ccccc3C2)c1` (stereo not shown) [Compound 31, 2-(3-acetamidophenoxy)-N-(3-(3,4-dihydroisoquinolin-2(1H)-yl)-2-hydroxypropyl)acetamide]: 1000 to 10000 nM; for `O=C(COc1ccccc1)NC[C@H](O)CN1CCc2ccccc2C1` [Compound 32]: 101 to 1000 nM; for `CN1CCN(c2ccccc2OCC(=O)NC[C@@H](O)CN2CCc3ccccc3C2)CC1` [Compound 85]: 1000 to 10000 nM.
Regarding `CN(c1cccc(OCC(=O)NCC(O)CN2CCc3ccccc3C2)c1)S(C)(=O)=O` (stereo not shown) [Compound 142], the IC50 fell in the range of 101 to 1000 nM.
The same measure for `O=C(CC1CCCCC1)NC[C@H](O)CN1CCc2ccccc2C1` [Compound 56]: 1000 to 10000 nM.

One may read the IC50 as the concentration that gives 50% inhibition.
